Test results from patent US6358688B1, “Immortalized human middle ear epithelial cell lines” (House Ear Institute, priority 1999, dated 2002).

How the values were obtained:
[1] = test system: primary human middle ear epithelial cells; assay: G418 selection of cultured cells; format: cell-based; settings: 2 and 7 days post G418 addition
Protocol: (§1) Passage 3 human middle ear epithelial cell cultures (at 50-70% confluence) were infected with 1 ml of virus stock diluted in 9 ml of fresh SFM-HG for 48 hours. The virus was then removed and the medium was replaced with fresh SFM-HG. The cells were allowed to proliferate and once at 70% confluence, they were trypsinized and re-seeded in fresh SFM-HG medium containing G418 (Gibco-BRL, Gaithersburg, […].) at a concentration of 0.4 mg/ml.
(§2) Cells were photographed prior to selection, at 2 days and at 7 days post G418 addition (panels, a, b and c, respectively). […]

[2] = test system: HPV-transformed human middle ear epithelial cell line HMEEC-1; assay: G418 selection of cultured cells; format: cell-based; settings: G418 0.4 mg/ml, 2 and 7 days post addition
Protocol: as §1, §2

MUC2 mRNA = assay: RT-PCR of mucin mRNA expression after retinoic acid; format: cell-based, human; settings: primary cultures
Protocol: Polymerase chain reaction (PCR) assays were performed essentially following the package insert of the commercially available Gene-Amp kit (document No. 55635-6/89, available from Perkin-Elmer/Cetus, Emeryville, Calif.). The following reagents were mixed in a 0.5 mL polypropylene tube and used in performing PCR:
After mixing, the reaction mixture was overlayed with a drop of mineral oil to 30 cycles of PCR, with the following cycle profile: 30 second denaturation, 1 minute annealing and 2 minute extension. The PCR products were run on a 1.2% TAE agarose gel.
Expression of various genes was confirmed using the following PCR primers specific for: […]

MEK1/2 (MAPK kinase) = assay: Assay for MEK (phospho-MEK1/2 antibody detection); format: cell-based, human; settings: HMEEC-1 cells treated for 5, 15 and 45 minutes
Protocol: Cells were treated with IL-1 alpha for 5, 15 and 45 minutes. The MEK assay was done according to the manufacturer's protocol (PhosphoPlus, MEK1/2 Antibody Kit; New England BioLabs, Beverly, Mass.). Antibodies specific to the phosphorylated (phospho-MEK1/2) and unphosphorylated (MEK1/2) MEK protein were used to distinguish between the phosphorylated and unphosphorylated forms of the protein.

CN[C@@H]1[C@@H](O)[C@@H](O[C@@H]2[C@@H](O)[C@H](O[C@H]3O[C@H]([C@@H](C)O)[C@@H](O)[C@H](O)[C@H]3N)[C@@H](N)C[C@H]2N)OC[C@]1(C)O [G418]
Response of cells to G418 [1]: sensitivity
Response of cells to G418 [2]: resistance

CC1=C(/C=C/C(C)=C/C=C/C(C)=C/C(=O)O)C(C)(C)CCC1 [Retinoic acid]
MUC2 expression in response to RA (MUC2 mRNA): no effect

IL-1 alpha: cytokine used to treat HMEEC-1 cells
Activation (phosphorylation) of MEK1/2 (MEK1/2 (MAPK kinase)): activates
